≈ marks a conversion by molar mass, not a printed value. Like-named read-outs stand apart in the source and are kept apart here. A value given as a limit tells only on which side of the number the result lay.

Here are results for 4 compounds from paper PMC6719172, “Inhibition of CpLIP2 Lipase Hydrolytic Activity by Four Flavonols (Galangin, Kaempferol, Quercetin, Myricetin) Compared to Orlistat and Their Binding Mechanisms Studied by Quenching of Fluorescence” (Molecules, 2019).

For one data set, the target named is CpLIP2 lipase (Candida parapsilosis, UniProt Q8NIN8). In words: Inhibition of CpLIP2 hydrolytic activity (ethyl oleate hydrolysis, GC). It counts as biochemical. As to conditions: for Ki: non-competitive or uncompetitive model. The protocol:
The effect of inhibitor concentrations on the hydrolysis reaction rate in standard conditions was assumed to follow either a non-competitive or an uncompetitive model, corresponding to Equation (1):(1) Ki=I/ V0/Vi−1 where V0 and Vi are the initial rates of the reaction without or with inhibitor at concentration I.
Standard CpLIP2 hydrolytic activity measurement. Hydrolysis activities were determined by measuring the initial rates of fatty acid and esters production (µmol·min^−1·mL^−1), using ethyl oleate (C18:1, EE) as substrates. Specific activity is the total activity expressed in µmol·min^−1·mL^−1 in relation to protein concentration (mg·mL^−1). Experiments were conducted as described by. Hydrolysis of ethyl oleate (EO) was performed in aqueous emulsions at 30 °C. This emulsion consisted of 100 µmol·mL^−1 EO emulsified by sonication (Branson Sonifier 250, 20 s, 200 watts, 145 µm amplitude) in an aqueous solution of 20 g·L^−1 poly vinyl alcohol. The reactions of hydrolysis were prepared in glass test tube by adding 100 μL of ethyl oleate emulsion to 800 µL of sodium phosphate buffer 50 mM, pH 6.5; then the solutions were incubated in water bath at 30 °C for 5 min. The reaction was started by the addition of 100 µL of enzyme solution of CpLIP2 with final concentration 3 µg·mL^−1 with activity 2000 U/mL.
The enzyme solution was pre-incubated at 25 °C, with continuous stirring at 350 rpm. Pre-incubation was conducted with 1980 µL CpLIP2 lipase diluted in sodium NaH2PO4/Na2HPO4 phosphate buffer (50 mM, pH 6.5) containing 20 µL absolute EtOH at 2 different times (1 and 30 min). This pre-incubation phase was conducted in closed vials placed during 2 h on a Radleys StarFish Multi-Experiment Workstation. The reaction was conducted for 15 min at 30 °C, and then stopped by adding 950 µL of a mixture of ethanol/sulphuric acid (100:0.8, v/v). After the addition of 50 µL of internal standards (ethanolic solution of pentadecanoic acid and its ethyl and methyl esters, 1 µmol each), lipids were extracted from the mixture with 1 mL of hexane. Samples were then prepared for analyzing esters and free fatty acids by gas chromatography (GC) as follows. Hexane extract (200 µL) was reacted with 25 µL pyridine and 25 µL N-methyl-tri (methylsilyl)-trifluoroacetamide (MSTFA) as silylating agent. Mixtures were incubated in water bath at 50 °C for 20 min, and then samples were ready for analysis. Reaction rates were determined by the analysis of fat composition by capillary gas chromatography after 15 min reaction. It was checked that less than 30% of the total substrate was converted at the end of the 15 min reaction.
A Shimadzu GC 2010 plus gas chromatograph equipped with a flame ionization detector, an automatic sampler (injected volume 0.1 μL) and a split/splitless injector was used for analysis. The capillary column was a DB-5ht (15 m × 0.25 mm, Phenomenex, Le Pecq, France). The helium carrier flow was 1 mL min^−1and the split ratio was 1:50. Temperature conditions were, for reactions with individual substrates: injector 280 °C, detector 290 °C, oven 200–225 °C at 10 °C min^−1 then to 260 °C at 35 °C·min^−1 for ethyl ester (EE) and fatty acid (FA) of C18:1. Calibration curves were realized using emulsions of mixtures of FA and monoesters prepared according to the same protocol, without enzyme and alcohol.
In order to measure the residual lipase activity in the presence of potential inhibitors, the previous method was conducted in the presence and absence of the inhibitors. For each potential inhibitor, the lipase-catalyzed rate of hydrolysis was evaluated after a pre-incubation period between the lipase and the potential inhibitors, which were solubilized in absolute ethanol at 1% of final concentration. The preincubation was performed at 25 °C with continuous stirring at 350 rpm with different concentration of inhibitors (14, 27.5, 55 µM) which represented, respectively 25, 50, 100-fold the final lipase concentration (0.55 µM). […]

For data set [1] the following is noted: cited from earlier work.
In a further data set the target is pancreatic lipase (PL). The arrangement: method as in PMID 23363068. The following applies: in vitro assay; cited from earlier work.
Details of data set [2]: method as in PMID 24601218, doi:10.1021/ja00090a032. As to conditions: cited from earlier work.
In data set [3] the target is C. rugosa commercial lipase. On the set-up: method as in doi:10.1016/j.molcatb.2006.02.012. As to conditions: cited from earlier work.
Setting [4] is: estimated after 30 min of pre-incubation.
Setting [5] is: concentration not stated (14–55 µM tested), up to 30 min pre-incubation.
The mark [6] stands for this setting: read-out: inhibition of CpLIP2 activity.

CpLIP2 lipase, sequence (Q8NIN8 entry or part of it): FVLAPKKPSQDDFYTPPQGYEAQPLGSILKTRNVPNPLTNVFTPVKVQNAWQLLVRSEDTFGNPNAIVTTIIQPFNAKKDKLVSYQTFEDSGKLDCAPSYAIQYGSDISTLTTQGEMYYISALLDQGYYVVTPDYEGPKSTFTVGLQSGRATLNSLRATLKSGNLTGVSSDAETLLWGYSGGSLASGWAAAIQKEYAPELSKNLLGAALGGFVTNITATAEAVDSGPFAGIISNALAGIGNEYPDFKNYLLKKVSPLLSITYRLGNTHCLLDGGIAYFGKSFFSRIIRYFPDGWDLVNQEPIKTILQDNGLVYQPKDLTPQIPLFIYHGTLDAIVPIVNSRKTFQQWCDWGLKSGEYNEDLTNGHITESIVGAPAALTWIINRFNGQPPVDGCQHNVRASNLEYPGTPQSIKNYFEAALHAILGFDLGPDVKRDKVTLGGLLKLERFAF

Take `O=c1c(O)c(-c2ccccc2)oc2cc(O)cc(O)c12` [GAL, galangin]: the Ki (commonly the dissociation constant of the complex between target and ligand, obtained from inhibition or displacement) at CpLIP2 lipase (setting [4]) was greater than 150 µM. Moreover, the “inhibition of CpLIP2 activity” value on CpLIP2 lipase (after 1 min pre-incubation, concentration not given) is “no inhibition”; against CpLIP2 lipase (setting [5]) it was no more than 20%. The “log10 P of partition between octanol and water phases” value (“log10 P” for short) in data set [1] was 3.9. Further, in data set [1] (pH 7.4), the “log10D (octanol/water at pH 7.4)” value is 0.7. In addition, the IC50 (usually the concentration that inhibits the measured activity by half) at pancreatic lipase (PL) is 48.2 mg/mL (≈ 178 mM).

For `O=c1c(O)c(-c2ccc(O)cc2)oc2cc(O)cc(O)c12` [KAE, kaempferol], at CpLIP2 lipase (55 µM (100-fold molar excess, highest concentration), pre-incubation time not stated, 55 µM), the “inhibition of CpLIP2 activity” value is given as 90%. The Ki at CpLIP2 lipase (estimated after 1 min of pre-incubation) was 4 µM; at CpLIP2 lipase (setting [4]), 6 µM. Further, the inhibition at 27.5 µM on CpLIP2 lipase (read-out: inhibition of CpLIP2 activity, 27.5 µM (50-fold lipase concentration), pre-incubation time not stated) was greater than 80%. In addition, on CpLIP2 lipase (read-out: inhibition of CpLIP2 activity, 55 µM (100-fold molar excess, highest concentration), pre-incubation time not stated), the inhibition at 55 µM turned out to be 92%. The inhibition at 14 µM on CpLIP2 lipase (read-out: inhibition of CpLIP2 catalytic activity, 14 µM, within 1 min of pre-incubation) was 80%. For the same compound, in data set [2], the pKa1 is 8.2. In addition, in data set [1], the “log10 P” value is 3.5. Also, in data set [3], the IC50 was 6300 µM.

For `O=c1c(O)c(-c2cc(O)c(O)c(O)c2)oc2cc(O)cc(O)c12` [MYR, myricetin], the “inhibitory effect relative to THL (times lower)” value against CpLIP2 lipase is recorded as “about 100 times”. Also, the inhibition constant (Ki) at CpLIP2 lipase (setting [4]) was 60 µM. Also, on CpLIP2 lipase (setting [5]), the “inhibition of CpLIP2 activity” value is “about 20%”. In data set [2], the pKa1 is reported as 6.6. The “log10 P” value in data set [1] was 2.1.

With `O=c1c(O)c(-c2ccc(O)c(O)c2)oc2cc(O)cc(O)c12` [QUE, quercetin], the “inhibitory effect relative to THL (times lower)” value against CpLIP2 lipase is reported as “about 100 times”. The inhibitory constant (Ki) on CpLIP2 lipase (setting [4]) is 80 µM. Moreover, at CpLIP2 lipase (setting [6]), the inhibition at 14 µM came out at 37%, the inhibition at 27.5 µM was determined as 39% and the inhibition at 55 µM was determined as 35%. The “log10 P” value in data set [1] was 2.9.
